How the values were obtained:
Experiment in all cases: KINOMEscan
Assay type in all cases: binding
Details in all cases: 1 μM
[1] = biological target: T1, TIE1 (Homo sapiens, UniProt P35590)
T1 construct: purchased Eurofins DiscoverX Corporation

[2] = biological target: T2, MLK2 (Homo sapiens, UniProt Q02779)
T2 construct: purchased Eurofins DiscoverX Corporation

[3] = biological target: T3, CAMK1G (Homo sapiens, UniProt Q96NX5)
T3 construct: purchased Eurofins DiscoverX Corporation (KINOMEscan)

[4] = biological target: EIF2AK1 (Homo sapiens, UniProt Q9BQI3)
[5] = biological target: T4, DRAK2 (Homo sapiens, UniProt O94768)
T4 construct: purchased Eurofins DiscoverX Corporation

[6] = biological target: ACVRL1 (Homo sapiens, UniProt P37023)
[7] = biological target: PDGFRA (Homo sapiens, UniProt P16234)
[8] = biological target: STK33 (Homo sapiens, UniProt Q9BYT3)
[9] = biological target: PKN2 (Homo sapiens, UniProt Q16513)
[10] = biological target: PKN1 (Homo sapiens, UniProt Q16512)
[11] = biological target: T5, GRK2 (Homo sapiens, UniProt P25098)
T5 construct: purchased Eurofins DiscoverX Corporation

[12] = biological target: T6, NEK3 (Homo sapiens, UniProt P51956)
T6 construct: purchased Eurofins DiscoverX Corporation

[13] = biological target: FGFR4 (Homo sapiens, UniProt P22455)
[14] = biological target: PRKCD (Homo sapiens, UniProt Q05655)
[15] = biological target: PRKG2 (Homo sapiens, UniProt Q13237)
[16] = biological target: PFTAIRE2 (Homo sapiens, UniProt Q96Q40)
[17] = biological target: ALK(C1156Y) (Homo sapiens, UniProt Q9UM73, C1156Y)
[18] = biological target: PRKD1 (Homo sapiens, UniProt Q15139)
[19] = biological target: T7, TAK1 (Homo sapiens, UniProt O43318)
T7 construct: purchased Eurofins DiscoverX Corporation

[20] = biological target: PFPK5(P.falciparum) (Plasmodium falciparum, UniProt P61075)
[21] = biological target: T8, HASPIN (Homo sapiens, UniProt Q8TF76)
T8 construct: purchased Eurofins DiscoverX Corporation

[22] = biological target: T9, MYO3A (Homo sapiens, UniProt Q8NEV4)
T9 construct: purchased Eurofins DiscoverX Corporation

[23] = biological target: PCTK3 (Homo sapiens, UniProt Q07002)
[24] = biological target: FLT3(D835Y) (Homo sapiens, UniProt P36888, D835Y)
[25] = biological target: T10, TNNI3K (Homo sapiens, UniProt Q59H18)
T10 construct: purchased Eurofins DiscoverX Corporation

[26] = biological target: ULK3 (Homo sapiens, UniProt Q6PHR2)
[27] = biological target: T11, TAOK1 (Homo sapiens, UniProt Q7L7X3)
T11 construct: purchased Eurofins DiscoverX Corporation

[28] = biological target: T12, TNK2 (Homo sapiens, UniProt Q07912)
T12 construct: purchased Eurofins DiscoverX Corporation

[29] = biological target: T13, IRAK1 (Homo sapiens, UniProt P51617)
T13 construct: purchased Eurofins DiscoverX (KINOMEscan)

[30] = biological target: TYK2(JH1domain-catalytic) (Homo sapiens, UniProt P29597)
[31] = biological target: FER (Homo sapiens, UniProt P16591)
[32] = biological target: T14, CSNK1D (Homo sapiens, UniProt P48730)
T14 construct: purchased Eurofins DiscoverX Corporation

[33] = biological target: NEK7 (Homo sapiens, UniProt Q8TDX7)
[34] = biological target: T15, DMPK2 (Homo sapiens, UniProt Q6DT37)
T15 construct: purchased Eurofins DiscoverX Corporation

[35] = biological target: T16, TRPM6 (Homo sapiens, UniProt Q9BX84)
T16 construct: purchased Eurofins DiscoverX Corporation

[36] = biological target: T17, TLK1 (Homo sapiens, UniProt Q9UKI8)
T17 construct: purchased Eurofins DiscoverX Corporation

[37] = biological target: T18, TBK1 (Homo sapiens, UniProt Q9UHD2)
T18 construct: purchased Eurofins DiscoverX Corporation

[38] = biological target: EGFR(L858R) (Homo sapiens, UniProt P00533, L858R)
[39] = biological target: CDKL5 (Homo sapiens, UniProt O76039)
[40] = biological target: T19, NEK2 (Homo sapiens, UniProt P51955)
T19 construct: purchased Eurofins DiscoverX Corporation

[41] = biological target: PIK3C2B (Homo sapiens, UniProt O00750)
[42] = biological target: PIK3CA(Q546K) (Homo sapiens, UniProt P42336, Q546K)
[43] = biological target: T20, CSNK1A1L (Homo sapiens, UniProt Q8N752)
T20 construct: purchased Eurofins DiscoverX Corporation

T8 sequence (Q8TF76 whole entry): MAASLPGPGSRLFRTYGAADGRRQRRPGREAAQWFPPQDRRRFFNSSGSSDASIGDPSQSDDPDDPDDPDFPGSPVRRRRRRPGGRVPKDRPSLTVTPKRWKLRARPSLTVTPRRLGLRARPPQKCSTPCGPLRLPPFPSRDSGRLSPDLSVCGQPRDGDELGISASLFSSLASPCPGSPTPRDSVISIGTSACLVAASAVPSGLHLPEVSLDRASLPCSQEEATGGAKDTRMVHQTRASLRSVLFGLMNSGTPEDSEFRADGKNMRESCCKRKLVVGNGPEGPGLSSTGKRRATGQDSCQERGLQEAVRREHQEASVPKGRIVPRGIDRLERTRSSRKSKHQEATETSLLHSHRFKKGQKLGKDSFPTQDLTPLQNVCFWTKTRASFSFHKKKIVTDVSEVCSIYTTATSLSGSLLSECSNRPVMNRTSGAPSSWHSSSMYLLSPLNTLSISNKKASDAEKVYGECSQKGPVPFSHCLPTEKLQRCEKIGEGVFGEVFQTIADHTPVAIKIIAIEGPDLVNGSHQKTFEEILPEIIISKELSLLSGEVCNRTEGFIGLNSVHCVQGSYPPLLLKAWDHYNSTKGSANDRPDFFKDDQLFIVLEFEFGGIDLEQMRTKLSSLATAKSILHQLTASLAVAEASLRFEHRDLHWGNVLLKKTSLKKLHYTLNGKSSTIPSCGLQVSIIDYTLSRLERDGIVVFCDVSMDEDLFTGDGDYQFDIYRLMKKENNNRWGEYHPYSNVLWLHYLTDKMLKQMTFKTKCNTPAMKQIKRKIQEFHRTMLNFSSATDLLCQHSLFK
T13 sequence (P51617 whole entry): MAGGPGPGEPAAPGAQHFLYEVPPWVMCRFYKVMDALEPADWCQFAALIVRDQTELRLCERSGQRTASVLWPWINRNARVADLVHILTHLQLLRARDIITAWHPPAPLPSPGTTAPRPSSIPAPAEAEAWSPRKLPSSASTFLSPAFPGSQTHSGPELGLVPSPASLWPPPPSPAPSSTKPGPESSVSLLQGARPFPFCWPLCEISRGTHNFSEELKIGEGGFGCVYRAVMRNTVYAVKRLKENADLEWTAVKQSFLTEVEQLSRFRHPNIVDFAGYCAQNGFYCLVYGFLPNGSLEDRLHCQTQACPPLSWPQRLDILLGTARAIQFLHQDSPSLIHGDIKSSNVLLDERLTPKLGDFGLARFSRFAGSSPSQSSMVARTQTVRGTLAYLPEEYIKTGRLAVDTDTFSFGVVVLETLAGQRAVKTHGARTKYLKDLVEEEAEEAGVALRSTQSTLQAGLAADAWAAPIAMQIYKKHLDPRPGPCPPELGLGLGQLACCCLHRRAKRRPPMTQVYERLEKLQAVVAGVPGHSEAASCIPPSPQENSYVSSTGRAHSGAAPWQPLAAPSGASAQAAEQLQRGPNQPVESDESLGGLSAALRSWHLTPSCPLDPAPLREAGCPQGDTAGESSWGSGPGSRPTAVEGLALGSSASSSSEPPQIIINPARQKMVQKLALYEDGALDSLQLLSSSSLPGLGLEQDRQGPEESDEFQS
PRKD1, sequence (Q15139 whole entry): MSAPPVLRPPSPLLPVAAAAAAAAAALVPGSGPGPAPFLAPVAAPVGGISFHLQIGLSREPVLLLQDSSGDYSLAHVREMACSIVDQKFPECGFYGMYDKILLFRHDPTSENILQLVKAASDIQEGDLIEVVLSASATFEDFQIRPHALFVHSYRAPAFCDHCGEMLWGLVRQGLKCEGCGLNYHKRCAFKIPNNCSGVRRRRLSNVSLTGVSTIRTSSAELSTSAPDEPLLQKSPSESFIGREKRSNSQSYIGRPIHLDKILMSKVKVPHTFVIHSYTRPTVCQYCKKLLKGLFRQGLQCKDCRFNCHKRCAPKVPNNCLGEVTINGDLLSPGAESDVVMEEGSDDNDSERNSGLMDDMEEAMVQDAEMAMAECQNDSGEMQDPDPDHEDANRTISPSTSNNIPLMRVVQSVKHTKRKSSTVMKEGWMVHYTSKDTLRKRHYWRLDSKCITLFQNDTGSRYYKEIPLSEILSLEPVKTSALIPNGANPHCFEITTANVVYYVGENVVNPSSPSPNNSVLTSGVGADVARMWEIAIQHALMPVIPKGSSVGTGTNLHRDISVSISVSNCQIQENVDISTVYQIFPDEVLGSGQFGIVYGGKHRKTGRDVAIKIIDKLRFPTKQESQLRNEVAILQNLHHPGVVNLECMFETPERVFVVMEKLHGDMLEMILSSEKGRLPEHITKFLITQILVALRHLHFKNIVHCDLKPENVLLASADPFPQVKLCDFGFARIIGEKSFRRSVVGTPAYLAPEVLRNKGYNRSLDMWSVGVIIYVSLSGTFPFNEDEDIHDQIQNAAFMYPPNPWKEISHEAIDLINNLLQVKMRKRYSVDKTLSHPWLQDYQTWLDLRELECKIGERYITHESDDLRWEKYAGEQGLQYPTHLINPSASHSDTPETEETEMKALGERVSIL
ALK(C1156Y), sequence (Q9UM73 19-1620 C1156Y): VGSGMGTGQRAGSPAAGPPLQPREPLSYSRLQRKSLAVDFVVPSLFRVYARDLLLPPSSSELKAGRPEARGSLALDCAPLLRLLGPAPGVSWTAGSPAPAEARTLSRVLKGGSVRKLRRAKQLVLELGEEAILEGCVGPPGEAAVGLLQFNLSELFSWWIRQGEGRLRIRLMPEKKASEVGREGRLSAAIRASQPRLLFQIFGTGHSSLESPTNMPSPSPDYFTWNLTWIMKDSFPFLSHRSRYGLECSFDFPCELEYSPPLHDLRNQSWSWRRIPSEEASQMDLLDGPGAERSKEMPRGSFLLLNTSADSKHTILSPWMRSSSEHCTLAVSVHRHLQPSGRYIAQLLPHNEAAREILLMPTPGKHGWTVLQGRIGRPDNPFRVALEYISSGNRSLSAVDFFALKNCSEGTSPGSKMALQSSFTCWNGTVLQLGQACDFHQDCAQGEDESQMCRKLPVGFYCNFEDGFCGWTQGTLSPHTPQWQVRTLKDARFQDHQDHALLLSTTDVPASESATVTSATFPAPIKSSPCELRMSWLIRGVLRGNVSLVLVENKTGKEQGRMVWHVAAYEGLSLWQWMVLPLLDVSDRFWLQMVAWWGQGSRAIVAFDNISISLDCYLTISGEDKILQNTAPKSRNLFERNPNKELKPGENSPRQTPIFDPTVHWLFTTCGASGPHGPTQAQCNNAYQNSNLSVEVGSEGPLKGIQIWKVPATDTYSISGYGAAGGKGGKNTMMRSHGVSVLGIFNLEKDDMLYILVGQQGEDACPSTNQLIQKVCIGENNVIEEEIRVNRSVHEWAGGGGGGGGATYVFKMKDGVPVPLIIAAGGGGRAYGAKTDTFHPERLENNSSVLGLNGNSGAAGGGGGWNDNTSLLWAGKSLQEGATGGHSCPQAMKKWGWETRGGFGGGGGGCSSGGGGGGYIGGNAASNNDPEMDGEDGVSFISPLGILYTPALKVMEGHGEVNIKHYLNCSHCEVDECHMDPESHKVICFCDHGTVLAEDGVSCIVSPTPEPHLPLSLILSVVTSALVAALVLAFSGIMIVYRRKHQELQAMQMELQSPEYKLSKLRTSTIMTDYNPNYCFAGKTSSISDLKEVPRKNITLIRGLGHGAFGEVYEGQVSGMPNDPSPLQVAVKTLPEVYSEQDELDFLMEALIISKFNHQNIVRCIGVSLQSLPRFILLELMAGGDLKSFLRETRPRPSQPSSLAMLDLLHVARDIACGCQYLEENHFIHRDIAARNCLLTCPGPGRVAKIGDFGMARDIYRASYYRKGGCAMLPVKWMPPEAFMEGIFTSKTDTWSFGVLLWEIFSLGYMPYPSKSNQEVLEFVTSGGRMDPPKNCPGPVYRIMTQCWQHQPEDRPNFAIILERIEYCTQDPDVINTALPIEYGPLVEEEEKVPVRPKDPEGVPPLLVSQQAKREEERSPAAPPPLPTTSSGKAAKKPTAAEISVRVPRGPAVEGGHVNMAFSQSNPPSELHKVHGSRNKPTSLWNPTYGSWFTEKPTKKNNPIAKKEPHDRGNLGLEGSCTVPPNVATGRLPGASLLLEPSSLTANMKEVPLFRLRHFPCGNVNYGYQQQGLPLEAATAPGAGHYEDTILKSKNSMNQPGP
T14 sequence (P48730 whole entry): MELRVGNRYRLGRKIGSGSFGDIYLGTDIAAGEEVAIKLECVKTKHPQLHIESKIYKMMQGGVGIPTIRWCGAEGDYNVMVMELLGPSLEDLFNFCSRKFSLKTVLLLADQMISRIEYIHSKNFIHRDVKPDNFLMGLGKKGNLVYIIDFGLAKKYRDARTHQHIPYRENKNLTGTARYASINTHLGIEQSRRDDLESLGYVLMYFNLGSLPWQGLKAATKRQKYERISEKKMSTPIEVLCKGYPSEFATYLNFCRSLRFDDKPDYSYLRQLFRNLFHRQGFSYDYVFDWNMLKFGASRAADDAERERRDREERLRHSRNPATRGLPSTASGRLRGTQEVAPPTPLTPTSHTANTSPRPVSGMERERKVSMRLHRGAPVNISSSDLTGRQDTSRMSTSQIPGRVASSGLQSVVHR
T6 sequence (P51956 whole entry): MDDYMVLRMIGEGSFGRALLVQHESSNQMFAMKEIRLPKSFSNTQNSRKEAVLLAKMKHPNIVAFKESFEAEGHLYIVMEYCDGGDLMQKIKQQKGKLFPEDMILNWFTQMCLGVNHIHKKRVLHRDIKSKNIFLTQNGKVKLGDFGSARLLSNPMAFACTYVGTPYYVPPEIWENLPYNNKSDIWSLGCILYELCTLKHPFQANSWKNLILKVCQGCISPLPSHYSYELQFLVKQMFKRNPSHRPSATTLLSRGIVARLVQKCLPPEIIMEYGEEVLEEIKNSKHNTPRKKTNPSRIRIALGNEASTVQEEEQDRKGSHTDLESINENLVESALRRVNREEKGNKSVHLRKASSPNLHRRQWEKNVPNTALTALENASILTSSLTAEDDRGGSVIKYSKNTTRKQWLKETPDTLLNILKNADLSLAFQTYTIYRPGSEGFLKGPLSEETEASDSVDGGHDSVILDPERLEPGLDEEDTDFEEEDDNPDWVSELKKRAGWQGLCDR

Structure (SMILES): C=CC(=O)Nc1ccc(OC)c(Nc2cc(-c3[nH]c(CC)nc3-c3cccc(NC(=O)c4cccc5c4NC(=O)c4ccccc4N5)c3)ccn2)c1 [Compound 4]
- POC [1]: 100% of control
- POC [2]: 97% of control
- POC [3]: 100% of control
- POC [4]: 75% of control
- POC [5]: 94% of control
- POC [6]: 75% of control
- POC [7]: 69% of control
- POC [8]: 100% of control
- POC [9]: 100% of control
- POC [10]: 88% of control
- POC [11]: 100% of control
- POC [12]: 100% of control
- POC [13]: 100% of control
- POC [14]: 55% of control
- POC [15]: 62% of control
- POC [16]: 84% of control
- POC [17]: 87% of control
- POC [18]: 42% of control
- POC [19]: 95% of control
- POC [20]: 100% of control
- POC [21]: 100% of control
- POC [22]: 14% of control
- POC [23]: 93% of control
- POC [24]: 96% of control
- POC [25]: 89% of control
- POC [26]: 100% of control
- POC [27]: 100% of control
- POC [28]: 3.8% of control
- POC [29]: 85% of control
- POC [30]: 91% of control
- POC [31]: 36% of control
- POC [32]: 87% of control
- POC [33]: 86% of control
- POC [34]: 0% of control
- POC [35]: 99% of control
- POC [36]: 87% of control
- POC [37]: 95% of control
- POC [38]: 5% of control
- POC [39]: 98% of control
- POC [40]: 98% of control
- POC [41]: 74% of control
- POC [42]: 100% of control
- POC [43]: 91% of control

Reference: article PMC10879502, “Linking ATP and allosteric sites to achieve superadditive binding with bivalent EGFR kinase inhibitors” (Communications Chemistry, 2024)
